Laboratory results published in patent US8975264B2, “Compound acting as a cannabinoid receptor-1 inhibitor” (Amorepacific Corporation, priority 2010, dated 2015).
pIC50: −log10 of the molar value.

Target: human CB1 (cannabinoid receptor 1) (Homo sapiens, UniProt P21554)
Assay: CB1 receptor inhibition effect: calcium ion influx assay (Fluo-4 NW) in Chem-1 cells after 1 μM R-(+)-WIN55212-2
Format: cell-based
Settings: Chem-1 cells stably expressing human CB1; agonist 1 μM R-(+)-WIN55212-2; compared with Examples 5 and 222
Procedure: When cells in which the cannabinoid receptor 1 (CB1) is stably expressed are treated with a CB1 receptor agonist, the CB1 receptor is activated and influx of calcium ions into the cells increases. CB1 receptor inhibition effect of a test compound can be evaluated by measuring the degree of calcium influx inhibition after treating with the test compound.
First, Chem-1 cells (Chemicon International, #HTS019C) in which human CB1 cDNA is expressed stably were seeded onto a 96-well cell culture plate at a density of ˜50,000 cells/well and incubated overnight in a 5% CO2 incubator at 37° C. The next day, the culture medium was discarded and the cells were cautiously washed once using an assay buffer (HBSS containing 20 mM HEPES and 2.5 mM probenecid) with 200 μL/well. Calcium ion influx was measured using an assay kit (Fluo-4 NW calcium assay kit: Molecular Probes™, #F36206) according to the manufacturer's instructions. The compounds of Examples of desired concentration to be measured were comprised to 0.5% DMSO. For control, only 0.5% DMSO was used without the compounds of Examples. Reaction time was 10 minutes. After treating the Chem-1 cells stably expressing the CB1 receptor with 1 μM R-(+)-WIN55212-2 (Sigma, #W102), a CB1 receptor agonist, calcium ion (Ca^2+) flux induced thereby was measured for 80 seconds using Flex Station 3 (Molecular Device, USA).
The difference in calcium ion concentration of the cells treated with the compounds of Examples or those treated with 1 μM R-(+)-WIN55212-2 was obtained from the difference of the maximum and minimum values during the 80 seconds. Then, % inhibition of the compounds for the CB1 receptor was calculated using the following equation. % inhibition={1−(ΔRFUcompound−ΔRFUBlank)/(ΔRFUControl−ΔRFUBlank)}×100 [Equation]
ΔRFU: maximum relative fluorescence units−minimum relative fluorescence units
ΔRFUCompound: difference in maximum and minimum RFUs in the well where the compounds of Examples dissolved in DMSO to a final concentration of 0.5% and 1 μM R-(+)-WIN55212-2 dissolved in DMSO to a final concentration of 0.5% were added
ΔRFUBlank: difference in maximum and minimum RFUs in the well to which only 1% DMSO was added
ΔRFUControl: difference in maximum and minimum RFUs in the well where 0.5% DMSO and 1 μM R-(+)-WIN55212-2 dissolved in DMSO to a final concentration of 0.5% were added

Chain of human CB1 (cannabinoid receptor 1) (P21554 whole entry): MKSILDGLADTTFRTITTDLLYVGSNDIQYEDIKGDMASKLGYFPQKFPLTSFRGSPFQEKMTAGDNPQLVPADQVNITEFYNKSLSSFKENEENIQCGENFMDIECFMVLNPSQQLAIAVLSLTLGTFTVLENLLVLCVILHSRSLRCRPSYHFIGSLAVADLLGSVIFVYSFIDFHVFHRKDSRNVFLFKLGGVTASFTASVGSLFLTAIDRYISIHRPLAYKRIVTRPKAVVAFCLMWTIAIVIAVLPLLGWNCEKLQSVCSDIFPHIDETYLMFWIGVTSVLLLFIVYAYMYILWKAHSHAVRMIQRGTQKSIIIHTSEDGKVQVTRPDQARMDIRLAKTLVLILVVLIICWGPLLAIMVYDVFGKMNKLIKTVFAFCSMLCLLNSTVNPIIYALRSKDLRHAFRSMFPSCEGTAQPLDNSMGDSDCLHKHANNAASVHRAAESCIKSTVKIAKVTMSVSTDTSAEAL

Question: `COCc1nn2c(-c3ccc(F)cc3)cc(N3CCC[C@@H]3CO)nc2c1-c1ccc(OC)cc1` [Example 306] was tested. Which “CB1 receptor inhibition effect, (R)-isomers compared with (S)-isomers” value did it give?
Answer: The value was “lower CB1 receptor inhibition effect than the compounds of Examples 5 and 222”.

Same assay, conditions: calcium ion influx in Chem-1 cells expressing human CB1, 1 μM R-(+)-WIN55212-2

Question: `COCc1nn2c(-c3cccc(C#N)c3)cc(N3CCC[C@H]3CO)nc2c1-c1ccc(OC)cc1` [Example 228] was tested. Which pIC50 did it give?
Answer: Its pIC50 is 7.66.

Question: `Cc1nn2c(-c3ccc(F)c(Cl)c3)cc(N3CCC[C@H]3CO)nc2c1-c1ccc(F)cc1` [Example 192] was tested. Which pIC50 did it give?
Answer: The pIC50 was 6.82.

Question: How did the pIC50 turn out when `COc1cccc(-c2cc(N3CCC[C@H]3CO)nc3c(-c4ccc(Cl)cc4)c(C)nn23)c1` [Example 6] was run?
Answer: The pIC50 was 6.70.

Question: With `CCOc1ccc(-c2c(C)nn3c(-c4cccc(C)c4)cc(N4CCC[C@H]4CO)nc23)cc1` [Example 158] as the compound, how does the pIC50 read?
Answer: Its pIC50 is 6.68.

Question: `Cc1nn2c(-c3ccc(F)cc3)cc(N3CCC[C@H]3CO)nc2c1-c1ccc(C(F)(F)F)cc1` [Example 69] was tested. Which pIC50 did it give?
Answer: Its pIC50 is 6.66.

Question: With `CCCOc1ccc(-c2c(C)nn3c(-c4ccc(C)cc4)cc(N4CCC[C@H]4CO)nc23)cc1` [Example 194] as the compound, how does the pIC50 read?
Answer: Its pIC50 is 6.70.

Question: With `COc1ccc(-c2c(C)nn3c(-c4cccc(C(F)(F)F)c4)cc(N4CCC[C@H]4CO)nc23)cc1F` [Example 138] as the compound, how does the pIC50 read?
Answer: The pIC50 was 6.68.

Question: With `CCOc1ccc(-c2c(C)nn3c(-c4cccc(Cl)c4)cc(N4CCC[C@H]4CO)nc23)cc1` [Example 171] as the compound, how does the pIC50 read?
Answer: Its pIC50 is 6.62.

Question: With `Cc1nn2c(-c3cccc(C(F)(F)F)c3)cc(N3CCC[C@H]3CO)nc2c1-c1ccc(Cl)cc1` [Example 9] as the compound, how does the pIC50 read?
Answer: Its pIC50 is 6.92.

Question: `Cc1ccc(-c2c(C)nn3c(-c4ccc(F)cc4)cc(N4CCC[C@H]4CO)nc23)cc1F` [Example 79] was tested. Which pIC50 did it give?
Answer: The pIC50 was 7.00.

Question: `OC[C@@H]1CCCN1c1cc(-c2ccc(F)cc2)n2nc(C3CC3)c(-c3ccc(Cl)cc3)c2n1` [Example 196, (S)-(1-(3-(4-chlorophenyl)-7-(4-fluorophenyl)-2-cyclopropylpyrazolo[1,5-a]pyrimidin-5-yl)pyrrolidin-2-yl)methanol] was tested. Which pIC50 did it give?
Answer: The pIC50 was 6.85.

Question: `CCOc1ccc(-c2c(C)nn3c(-c4ccccc4)cc(N4CCC[C@H]4CO)nc23)cc1` [Example 47, (S)-(1-(3-(4-ethoxyphenyl)-7-phenyl-2-methylpyrazolo[1,5-a]pyrimidin-5-yl)pyrrolidin-2-yl)methanol] was tested. Which pIC50 did it give?
Answer: The pIC50 was 6.89.

Question: `CCOCc1nn2c(-c3cccc(C(F)(F)F)c3)cc(N3CCC[C@H]3CO)nc2c1-c1ccc(OC)cc1` [Example 212] was tested. Which pIC50 did it give?
Answer: The pIC50 was 7.59.

Question: How did the pIC50 turn out when `Cc1nn2c(-c3cccc(F)c3)cc(N3CCC[C@H]3CO)nc2c1-c1ccc(C(F)F)cc1` [Example 114] was run?
Answer: The pIC50 was 7.11.

Question: `CCCOc1ccc(-c2c(C)nn3c(-c4ccc(F)cc4)cc(N4CCC[C@H]4CO)nc23)cc1F` [Example 100] was tested. Which pIC50 did it give?
Answer: The pIC50 was 6.51.

Question: With `COCc1nn2c(-c3cccc(F)c3)cc(N3CCC[C@H]3CO)nc2c1-c1ccc(Cl)cc1` [Example 232] as the compound, how does the pIC50 read?
Answer: The pIC50 was 8.40.

Question: With `COc1ccc(-c2c(C)nn3c(-c4ccc(F)c(F)c4)cc(N4CCC[C@H]4CO)nc23)cc1F` [Example 187] as the compound, how does the pIC50 read?
Answer: Its pIC50 is 6.41.

Question: `CCOc1ccc(-c2c(C)nn3c(-c4cccc(F)c4)cc(N4CCC[C@H]4CO)nc23)cc1` [Example 112] was tested. Which pIC50 did it give?
Answer: Its pIC50 is 6.89.

Question: With `CCc1cccc(-c2cc(N3CCC[C@H]3CO)nc3c(-c4ccc5c(c4)OCO5)c(C)nn23)c1` [Example 60] as the compound, how does the pIC50 read?
Answer: The pIC50 was 6.68.

Question: With `Cc1nn2c(-c3ccc(F)cc3)cc(N3CCC[C@H]3CO)nc2c1-c1ccc(OC(C)C)cc1` [Example 85] as the compound, how does the pIC50 read?
Answer: Its pIC50 is 6.33.

Question: How did the pIC50 turn out when `CCOCc1nn2c(-c3cccc(OC)c3)cc(N3CCC[C@H]3CO)nc2c1-c1ccc(C)cc1` [Example 203] was run?
Answer: Its pIC50 is 7.52.

Question: With `Cc1ccc(-c2c(C)nn3c(-c4cccc(C)c4)cc(N4CCC[C@H]4CO)nc23)cc1` [Example 156] as the compound, how does the pIC50 read?
Answer: The pIC50 was 7.34.

Question: How did the pIC50 turn out when `Cc1nn2c(-c3ccc(Cl)cc3)cc(N3CCC[C@H]3CO)nc2c1-c1ccc(Cl)cc1` [Example 15] was run?
Answer: The pIC50 was 6.46.

Question: With `Cc1nn2c(-c3ccc(F)cc3)cc(N3CCC[C@H]3CO)nc2c1-c1ccc(C#N)cc1` [Example 106] as the compound, how does the pIC50 read?
Answer: Its pIC50 is 6.60.

Question: `COc1ccc(-c2c(C)nn3c(-c4cccc(C)c4)cc(N4CCC[C@H]4CO)nc23)cc1` [Example 157, (S)-(1-(3-(4-methoxyphenyl)-7-(3-methylphenyl)-2-methylpyrazolo[1,5-a]pyrimidin-5-yl)pyrrolidin-2-yl)methanol] was tested. Which pIC50 did it give?
Answer: Its pIC50 is 6.68.

Same assay, conditions: compound at 1 μM; calcium ion influx in Chem-1 cells expressing human CB1, 1 μM R-(+)-WIN55212-2

Question: `COCc1nn2c(-c3ccc(F)cc3)cc(N3CCC[C@@H]3CO)nc2c1-c1ccc(OC)cc1` [Example 306] was tested. Which inhibition at 1 µM did it give?
Answer: Its inhibition at 1 µM is < 5%.
